{
  "source": "paper PMC5218480",
  "about": "(PLoS ONE, 2017)",
  "tested_on": "MV-4-11 cells",
  "assay": "Gene expression microarray analysis (Affymetrix PrimeView) and GSEA",
  "format": "cell-based, human",
  "design": "RFU PODN (11730768_x_at) / Fold change /veh PODN (11730768_x_at) / RFU LINC00158 (11744669_a_at) / Fold change /veh LINC00158 (11744669_a_at) / RFU DUSP10 (11751237_a_at) / Fold change /veh DUSP10 (11751237_a_at) / RFU ID3 (11757404_x_at) / Fold change /veh ID3 (11757404_x_at) / RFU PLEKHG5 (11737974_s_at) / Fold change /veh PLEKHG5 (11737974_s_at) / RFU LRRC4B (11730491_at) / Fold change /veh LRRC4B (11730491_at) / RFU GIMAP4 (11747438_a_at) / Fold change /veh GIMAP4 (11747438_a_at) / RFU KRT8 (11758183_x_at) / Fold change /veh KRT8 (11758183_x_at) / RFU CNN1 (11734310_a_at) / Fold change /veh CNN1 (11734310_a_at) / RFU VPS37D (11726825_at) / Fold change /veh VPS37D (11726825_at) / RFU C10orf10 (11716522_x_at) / Fold change /veh C10orf10 (11716522_x_at) / RFU KIR2DL2 /// KIR2DL4 /// KIR2DL5A /// KIR2DL5B /// KIR2DS1 /// KIR2DS2 /// KIR2DS3 /// KIR2DS4 /// KIR3DL3 /// KIR3DL3 /// KIR3DS1 (11738374_at) / Fold change /veh KIR2DL2 /// KIR2DL4 /// KIR2DL5A /// KIR2DL5B /// KIR2DS1 /// KIR2DS2 /// KIR2DS3 /// KIR2DS4 /// KIR3DL3 /// KIR3DL3 /// KIR3DS1 (11738374_at) / RFU C1QL1 (11718748_at) / Fold change /veh C1QL1 (11718748_at) / RFU TMPRSS4 (11747572_a_at) / Fold change /veh TMPRSS4 (11747572_a_at) / RFU HAMP (11756126_x_at) / Fold change /veh HAMP (11756126_x_at) / RFU RNFT2 (11725882_a_at) / Fold change /veh RNFT2 (11725882_a_at) / RFU NR4A2 (11747474_a_at) / Fold change /veh NR4A2 (11747474_a_at) / RFU ABCC12 (11746883_a_at) / Fold change /veh ABCC12 (11746883_a_at) / RFU TMEM136 (11760407_x_at) / Fold change /veh TMEM136 (11760407_x_at) / RFU CLDN22 /// WWC2 (11732394_at) / Fold change /veh CLDN22 /// WWC2 (11732394_at) / RFU HLA-DPB1 (11760878_x_at) / Fold change /veh HLA-DPB1 (11760878_x_at) / RFU SPINT1 (11716480_a_at) / Fold change /veh SPINT1 (11716480_a_at) / RFU GAP43 (11754022_s_at) / Fold change /veh GAP43 (11754022_s_at) / RFU A4GNT (11735810_at) / Fold change /veh A4GNT (11735810_at) / RFU PRB3 (11715151_x_at) / Fold change /veh PRB3 (11715151_x_at) / RFU TUBB4B (11761932_at) / Fold change /veh TUBB4B (11761932_at) / RFU CAPN14 (11732068_a_at) / Fold change /veh CAPN14 (11732068_a_at) / RFU TMCC2 (11721928_a_at) / Fold change /veh TMCC2 (11721928_a_at) / RFU IRGQ (11745062_a_at) / Fold change /veh IRGQ (11745062_a_at) / RFU FAM174B (11720279_a_at) / Fold change /veh FAM174B (11720279_a_at) / RFU TMPRSS4 (11748680_a_at) / Fold change /veh TMPRSS4 (11748680_a_at) / RFU FAM212B (11763350_a_at) / Fold change /veh FAM212B (11763350_a_at) / RFU PLEKHG5 (11743358_a_at) / Fold change /veh PLEKHG5 (11743358_a_at) / RFU ZSCAN30 (11745921_a_at) / Fold change /veh ZSCAN30 (11745921_a_at) / RFU CMKLR1 (11741424_a_at) / Fold change /veh CMKLR1 (11741424_a_at) / RFU LOC101060620 /// MAPK8IP1 (11723275_at) / Fold change /veh LOC101060620 /// MAPK8IP1 (11723275_at) / RFU SPTSSB (11747773_x_at) / Fold change /veh SPTSSB (11747773_x_at) / RFU PRSS12 (11739890_at) / Fold change /veh PRSS12 (11739890_at) / RFU BIN1 (11741810_x_at) / Fold change /veh BIN1 (11741810_x_at) / RFU WNT11 (11732464_a_at) / Fold change /veh WNT11 (11732464_a_at) / RFU C10orf10 (11716521_a_at) / Fold change /veh C10orf10 (11716521_a_at) / RFU C5orf56 (11738089_at) / Fold change /veh C5orf56 (11738089_at) / RFU CYB561 (11721691_x_at) / Fold change /veh CYB561 (11721691_x_at) / RFU ANKRD19P (11752326_a_at) / Fold change /veh ANKRD19P (11752326_a_at) / RFU OR2T12 /// OR2T33 /// OR2T8 (11738714_s_at) / Fold change /veh OR2T12 /// OR2T33 /// OR2T8 (11738714_s_at) / RFU VCAN (11748164_a_at) / Fold change /veh VCAN (11748164_a_at) / RFU JSRP1 (11732532_at) / Fold change /veh JSRP1 (11732532_at) / RFU KRTAP10-11 (11738290_x_at) / Fold change /veh KRTAP10-11 (11738290_x_at) / RFU MYO3A (11730013_a_at) / Fold change /veh MYO3A (11730013_a_at) / RFU EBF3 (11725865_a_at) / Fold change /veh EBF3 (11725865_a_at) / RFU CAMK2N1 (11719241_x_at) / Fold change /veh CAMK2N1 (11719241_x_at) / RFU C5orf56 (11738088_a_at) / Fold change /veh C5orf56 (11738088_a_at) / RFU OLFML3 (11715873_a_at) / Fold change /veh OLFML3 (11715873_a_at) / RFU LOC100653217 /// NTM (11731650_a_at) / Fold change /veh LOC100653217 /// NTM (11731650_a_at) / RFU MAPK11 (11762145_a_at) / Fold change /veh MAPK11 (11762145_a_at) / RFU FIZ1 (11724087_x_at) / Fold change /veh FIZ1 (11724087_x_at) / RFU OASL (11726364_x_at) / Fold change /veh OASL (11726364_x_at) / RFU SOX15 (11748057_x_at) / Fold change /veh SOX15 (11748057_x_at) / RFU CD79A (11719716_a_at) / Fold change /veh CD79A (11719716_a_at) / RFU HIST1H1D (11736915_at) / Fold change /veh HIST1H1D (11736915_at) / RFU CASKIN2 (11723855_a_at) / Fold change /veh CASKIN2 (11723855_a_at) / RFU LOC730098 (11760151_x_at) / Fold change /veh LOC730098 (11760151_x_at) / RFU OR4N2 (11742367_at) / Fold change /veh OR4N2 (11742367_at) / RFU PRRT2 (11749266_a_at) / Fold change /veh PRRT2 (11749266_a_at) / RFU SNX32 (11753110_a_at) / Fold change /veh SNX32 (11753110_a_at) / RFU CDHR5 (11726645_a_at) / Fold change /veh CDHR5 (11726645_a_at) / RFU RCAN1 (11760418_a_at) / Fold change /veh RCAN1 (11760418_a_at) / RFU FAM167A (11723789_a_at) / Fold change /veh FAM167A (11723789_a_at) / RFU FAM26E (11764081_at) / Fold change /veh FAM26E (11764081_at) / RFU ISYNA1 (11749810_s_at) / Fold change /veh ISYNA1 (11749810_s_at) / RFU ACY1 (11761880_at) / Fold change /veh ACY1 (11761880_at) / RFU 11764098_at / Fold change /veh 11764098_at / RFU SAMD14 (11745864_x_at) / Fold change /veh SAMD14 (11745864_x_at) / RFU NPB (11741838_a_at) / Fold change /veh NPB (11741838_a_at) / RFU TMPRSS6 (11731388_a_at) / Fold change /veh TMPRSS6 (11731388_a_at) / RFU KRTAP10-2 (11738614_at) / Fold change /veh KRTAP10-2 (11738614_at) / RFU ARHGAP8 /// PRR5-ARHGAP8 (11727945_x_at) / Fold change /veh ARHGAP8 /// PRR5-ARHGAP8 (11727945_x_at) / RFU KRTAP5-7 /// NADSYN1 (11734609_at) / Fold change /veh KRTAP5-7 /// NADSYN1 (11734609_at) / RFU RASL12 (11751679_a_at) / Fold change /veh RASL12 (11751679_a_at) / RFU CDKN2B (11736163_a_at) / Fold change /veh CDKN2B (11736163_a_at) / RFU PRF1 (11729649_at) / Fold change /veh PRF1 (11729649_at) / RFU, ZNF638 /// ZNF638-IT1 / Fold change vs veh, ZNF638 /// ZNF638-IT1 / RFU, PANK3 / Fold change vs veh, PANK3 / RFU, SH3YL1 / Fold change vs veh, SH3YL1 / RFU, ZEB2 / Fold change vs veh, ZEB2 / RFU, NRIP1 / Fold change vs veh, NRIP1 / RFU, PTTG1IP / Fold change vs veh, PTTG1IP / RFU, CAPN2 / Fold change vs veh, CAPN2 / RFU, MED14 / Fold change vs veh, MED14 / RFU, SNORA58 / Fold change vs veh, SNORA58 / RFU, C1orf63 / Fold change vs veh, C1orf63 / RFU, LRRFIP1 / Fold change vs veh, LRRFIP1 / RFU, NDUFAF7 / Fold change vs veh, NDUFAF7 / RFU, SLC12A2 / Fold change vs veh, SLC12A2 / RFU, IBTK / Fold change vs veh, IBTK / RFU, ESF1 / Fold change vs veh, ESF1 / Fold change vs veh, TMEM50B / RFU, TAOK1 / Fold change vs veh, TAOK1 / RFU, ACBD3 / Fold change vs veh, ACBD3 / RFU, TMA16 / Fold change vs veh, TMA16 / RFU, RWDD3 / Fold change vs veh, RWDD3 / RFU, BCAT1 / Fold change vs veh, BCAT1 / RFU, EDEM3 / Fold change vs veh, EDEM3 / RFU, TMEM33 / Fold change vs veh, TMEM33 / RFU, WDR75 / Fold change vs veh, WDR75 / RFU, AHCTF1 / Fold change vs veh, AHCTF1 / RFU, TFRC / Fold change vs veh, TFRC / RFU, ZDHHC17 / Fold change vs veh, ZDHHC17 / RFU, NOM1 / Fold change vs veh, NOM1 / RFU, ARL8B / Fold change vs veh, ARL8B / RFU, ZBTB11 / Fold change vs veh, ZBTB11 / RFU, TAMM41 / Fold change vs veh, TAMM41 / RFU, KIAA1704 /// LOC100996395 / Fold change vs veh, KIAA1704 /// LOC100996395 / RFU, ING1 / Fold change vs veh, ING1 / RFU, TRMT61B / Fold change vs veh, TRMT61B / RFU, FUBP3 / Fold change vs veh, FUBP3 / RFU, TP53 / Fold change vs veh, TP53 / RFU, TNKS2 / Fold change vs veh, TNKS2 / RFU, ZFP14 / Fold change vs veh, ZFP14 / RFU, ACTR2 / Fold change vs veh, ACTR2 / RFU, PPP3R1 / Fold change vs veh, PPP3R1 / RFU, PIK3R1 / Fold change vs veh, PIK3R1 / RFU, HNRNPA1 / Fold change vs veh, HNRNPA1 / RFU, RNF170 / Fold change vs veh, RNF170 / RFU, ZNF28 / Fold change vs veh, ZNF28 / RFU, RNGTT / Fold change vs veh, RNGTT / RFU, OGT / Fold change vs veh, OGT / RFU, BRD1 / Fold change vs veh, BRD1 / RFU, MARS / Fold change vs veh, MARS / RFU, ZNF655 / Fold change vs veh, ZNF655 / RFU, FAHD1 / Fold change vs veh, FAHD1 / RFU, BDP1 / Fold change vs veh, BDP1 / RFU, LRRCC1 / Fold change vs veh, LRRCC1 / RFU, ARID1A / Fold change vs veh, ARID1A / RFU, ZNF146 / Fold change vs veh, ZNF146 / RFU, ZNF330 / Fold change vs veh, ZNF330 / RFU, GPN3 / Fold change vs veh, GPN3 / RFU, C9orf123 / Fold change vs veh, C9orf123 / RFU, N4BP2L2 / Fold change vs veh, N4BP2L2 / RFU, ARFIP1 / Fold change vs veh, ARFIP1 / RFU, FAM179B / Fold change vs veh, FAM179B / RFU, BCL10 / Fold change vs veh, BCL10 / RFU, UHRF1BP1L / Fold change vs veh, UHRF1BP1L / RFU, BET1 / Fold change vs veh, BET1 / RFU, CNOT2 / Fold change vs veh, CNOT2 / RFU, ZNF268 / Fold change vs veh, ZNF268 / Fold change vs veh, ZNF507 / RFU, DGCR2 / Fold change vs veh, DGCR2 / RFU, WDSUB1 / Fold change vs veh, WDSUB1 / Fold change vs veh, HSP90B1 /// MIR3652 / RFU, ADSS / Fold change vs veh, ADSS / RFU, GK / Fold change vs veh, GK / RFU, ZNF148 / Fold change vs veh, ZNF148 / RFU, TAF9 / Fold change vs veh, TAF9 / RFU, SLC1A5 / Fold change vs veh, SLC1A5 / RFU, SLMO2 / Fold change vs veh, SLMO2 / RFU, ABCC4 / Fold change vs veh, ABCC4 / RFU, LOC101060439 /// RAP1B / Fold change vs veh, LOC101060439 /// RAP1B / RFU, RFX7 / Fold change vs veh, RFX7 / RFU, GTPBP10 / Fold change vs veh, GTPBP10 / RFU, CNEP1R1 / Fold change vs veh, CNEP1R1 / RFU, BIVM-ERCC5 /// ERCC5 / Fold change vs veh, BIVM-ERCC5 /// ERCC5 / RFU, ILF3 / Fold change vs veh, ILF3 / RFU 11762660_at / Fold change /veh 11762660_at / RFU VCAN (11757783_s_at) / Fold change /veh VCAN (11757783_s_at) / RFU DDX43 (11728927_at) / Fold change /veh DDX43 (11728927_at) / RFU KRT8 (11758188_x_at) / Fold change /veh KRT8 (11758188_x_at) / RFU NKD1 (11759106_at) / Fold change /veh NKD1 (11759106_at) / RFU SRD5A1 (11742802_a_at) / Fold change /veh SRD5A1 (11742802_a_at) / RFU TPSAB1 /// TPSB2 (11721975_s_at) / Fold change /veh TPSAB1 /// TPSB2 (11721975_s_at) / RFU GSTM3 (11746129_a_at) / Fold change /veh GSTM3 (11746129_a_at) / RFU IL23R (11737362_x_at) / Fold change /veh IL23R (11737362_x_at) / RFU TMEM51 (11727254_a_at) / Fold change /veh TMEM51 (11727254_a_at) / RFU PIWIL2 (11732686_x_at) / Fold change /veh PIWIL2 (11732686_x_at) / RFU ORM1 (11744905_x_at) / Fold change /veh ORM1 (11744905_x_at) / RFU CCDC152 (11743942_at) / Fold change /veh CCDC152 (11743942_at) / RFU ECM1 (11717891_a_at) / Fold change /veh ECM1 (11717891_a_at) / RFU IL23R (11748794_a_at) / Fold change /veh IL23R (11748794_a_at) / RFU TNFAIP8L3 (11732012_x_at) / Fold change /veh TNFAIP8L3 (11732012_x_at) / RFU MBOAT4 (11741988_at) / Fold change /veh MBOAT4 (11741988_at) / RFU 11764193_at / Fold change /veh 11764193_at / RFU TMEM53 (11763286_at) / Fold change /veh TMEM53 (11763286_at) / RFU MAGEB2 (11727129_at) / Fold change /veh MAGEB2 (11727129_at) / RFU TMEM200A (11744735_a_at) / Fold change /veh TMEM200A (11744735_a_at) / RFU CCDC152 (11751479_a_at) / Fold change /veh CCDC152 (11751479_a_at) / RFU FAM211A (11726209_a_at) / Fold change /veh FAM211A (11726209_a_at) / RFU RGS16 (11746705_a_at) / Fold change /veh RGS16 (11746705_a_at) / RFU VCAN (11755009_s_at) / Fold change /veh VCAN (11755009_s_at) / RFU RHOB (11743442_s_at) / Fold change /veh RHOB (11743442_s_at) / RFU RGS16 (11720943_a_at) / Fold change /veh RGS16 (11720943_a_at) / RFU RGS16 (11720944_at) / Fold change /veh RGS16 (11720944_at) / RFU, VPS4B / Fold change vs veh, VPS4B / RFU, CREB1 / Fold change vs veh, CREB1 / RFU, DNAJC13 / Fold change vs veh, DNAJC13 / RFU, GNAQ / Fold change vs veh, GNAQ / RFU, CDK5R1 / Fold change vs veh, CDK5R1 / RFU, ZRANB3 / Fold change vs veh, ZRANB3 / RFU, CUL4A / Fold change vs veh, CUL4A / RFU, CCNY / Fold change vs veh, CCNY / RFU, UFL1 / Fold change vs veh, UFL1 / RFU, COG3 / Fold change vs veh, COG3 / RFU, DIAPH2 / Fold change vs veh, DIAPH2 / RFU, SKA2 / Fold change vs veh, SKA2 / RFU, AFF3 / Fold change vs veh, AFF3 / RFU, LMF1 / Fold change vs veh, LMF1 / RFU, IPO11 / Fold change vs veh, IPO11 / RFU, DFFB / Fold change vs veh, DFFB / RFU, FOXP1 / Fold change vs veh, FOXP1 / RFU, CARD8 / Fold change vs veh, CARD8 / RFU, STRN3 / Fold change vs veh, STRN3 / RFU, ADK / Fold change vs veh, ADK / RFU, RASSF2 / Fold change vs veh, RASSF2 / RFU, WIPF1 / Fold change vs veh, WIPF1 / RFU, LARP1B / Fold change vs veh, LARP1B / RFU, RASA1 / Fold change vs veh, RASA1 / RFU, RB1 / Fold change vs veh, RB1 / RFU, PPFIA1 / Fold change vs veh, PPFIA1 / RFU, MAT2A / Fold change vs veh, MAT2A / RFU, CCT5 / Fold change vs veh, CCT5 / RFU, WDR92 / Fold change vs veh, WDR92 / RFU, CUX1 / Fold change vs veh, CUX1 / RFU, TTC7A / Fold change vs veh, TTC7A / RFU, TMEM135 / Fold change vs veh, TMEM135 / RFU, DEPTOR / Fold change vs veh, DEPTOR / RFU, CPM / Fold change vs veh, CPM / RFU, DNAJB6 / Fold change vs veh, DNAJB6 / RFU, CACNA2D3 / Fold change vs veh, CACNA2D3 / RFU, DTX4 / Fold change vs veh, DTX4 / RFU, TFCP2 / Fold change vs veh, TFCP2 / RFU, GMCL1 /// GMCL1P1 / Fold change vs veh, GMCL1 /// GMCL1P1 / RFU, AEBP2 / Fold change vs veh, AEBP2 / RFU, SNHG1 /// SNORD22 /// SNORD25 /// SNORD26 /// SNORD27 /// SNORD28 /// SNORD29 /// SNORD31 / Fold change vs veh, SNHG1 /// SNORD22 /// SNORD25 /// SNORD26 /// SNORD27 /// SNORD28 /// SNORD29 /// SNORD31 / Fold change (Aza/veh), C12orf56 (ProbeSet 11735607_a_at) / Fold change (ACY-1035/veh), C12orf56 (ProbeSet 11735607_a_at) / Fold change (Aza/veh), FGFR1OP (ProbeSet 11751329_s_at) / Fold change (ACY-1035/veh), FGFR1OP (ProbeSet 11751329_s_at) / Fold change (Aza/veh), VPS36 (ProbeSet 11739960_a_at) / Fold change (ACY-1035/veh), VPS36 (ProbeSet 11739960_a_at) / RFU SYPL1 (11715823_x_at) / Fold change /veh SYPL1 (11715823_x_at) / RFU IGFBP7 (11715501_s_at) / Fold change /veh IGFBP7 (11715501_s_at) / RFU REEP3 (11722064_at) / Fold change /veh REEP3 (11722064_at) / RFU IGLL1 (11728026_x_at) / Fold change /veh IGLL1 (11728026_x_at): dose or concentration left out as unconfirmed",
  "conditions": "ProbeSet 11731583_a_at; LIST D",
  "data": [
    {"smiles": "Nc1ncn([C@@H]2O[C@H](CO)[C@@H](O)[C@H]2O)c(=O)n1", "note": "[azacitidine]", "values": [
      {"measurement": "Fold change vs veh, LARP1B", "result": 0.75}
    ]}
  ]
}
